Data reported in PubChem BioAssay AID1934 (Broad Institute, 2009).
Results filed as inconclusive are left out.

Test system: DRD oncogenic fibroblast viability, ATP luminescence
Assay: DRD fibroblast viability loss – cell-based, non-viral oncogenic, luminescence, dose response (AID 1934)

## C=C(C=O)CC1CC(O)[C@]2(C)OC3CC4OC5C[C@]6(C)O[C@]7(C)CCC8OC9C[C@]%10(C)OC%11C(C)=CC(=O)OC%11CC%10OC9C[C@@H](C)C8OC7CC6O[C@]5(C)CC5OC5C4OC3CC2O1 (stereo partly specified)
  EC50: 824 nM
